Laboratory results: US6410483B1, “Phenylsulfonylureas, processes for their preparation, and their use as herbicides and plant growth regulators” (Hoechst Schering AgrEvo GmbH, priority 1997, dated 2002)

melting point: 165 to 169 °C (dec.)
Structure (SMILES): COC(=O)NCCc1ccc(C(=O)OC)c(S(=O)(=O)NC(=O)Nc2nc(OC)cc(OC)n2)c1 [Example A5, Methyl 2-[(4,6-Dimethoxypyrimidin-2-yl)aminocarbonylaminosulfonyl]-4-[2-(methoxycarbonylamino)ethyl]benzoate]
